Experimental data published in ChEMBL document CHEMBL1201862, “PubChem BioAssay data set” (2004).
Values joined by “and” are separate entries in the source; they are usually repeats but may differ in a detail not shown here. Equal entries are not always repeated.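 Tested at 5 concentrations; 48 h exposure; 96-well plates; endpoints linearly interpolated, else capped at highest concentration. At the GI50, growth is halved.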 Active and inactive are the calls of the source. Cut-off read from the data, not from the text of the source: active = GI50 up to about 1.1 µM and inactive = higher.

Key:
Experiment in all cases: NCI-60 cell line screen, 48 h
[1] = test system: 786-0
[2] = test system: A498
[3] = test system: A549
[4] = test system: ACHN
[5] = test system: CAKI-1
[6] = test system: CCRF-CEM
[7] = test system: COLO 205
[8] = test system: DU-145
[9] = test system: EKVX
[10] = test system: HCT-116
[11] = test system: HCT-15
[12] = test system: HOP-62
[13] = test system: HOP-92
[14] = test system: HT-29
[15] = test system: Hs-578T
[16] = test system: IGROV-1
[17] = test system: K562
[18] = test system: KM12
[19] = test system: LOX IMVI
[20] = test system: M14
[21] = test system: MCF7
[22] = test system: MDA-MB-231
[23] = test system: MDA-MB-435
[24] = test system: MDA-N
[25] = test system: MOLT-4
[26] = test system: Malme-3M
[27] = test system: NCI-H226
[28] = test system: NCI-H23
[29] = test system: NCI-H460
[30] = test system: NCI-H522
[31] = test system: NCI/ADR-RES
[32] = test system: OVCAR-3
[33] = test system: OVCAR-4
[34] = test system: OVCAR-5
[35] = test system: OVCAR-8
[36] = test system: PC-3
[37] = test system: RPMI-8226
[38] = test system: RXF 393
[39] = test system: SF-268
[40] = test system: SF-295
[41] = test system: SF-539
[42] = test system: SK-MEL-28
[43] = test system: SK-MEL-2
[44] = test system: SK-MEL-5
[45] = test system: SK-OV-3
[46] = test system: SN12C
[47] = test system: SNB-19
[48] = test system: SR
[49] = test system: SW-620
[50] = test system: TK-10
[51] = test system: U-251
[52] = test system: UACC-257
[53] = test system: UACC-62
[54] = test system: HCC 2998
[55] = test system: HL-60
[56] = test system: SNB-75
[57] = test system: T47D
[58] = test system: UO-31

## COC(=O)CCc1c(Cc2ccc[nH]2)[nH]c(C(=O)OCc2ccccc2)c1C
[1]
  GI50: 16.3 µM (inactive)
[2]
  GI50: 28.9 µM (inactive)
[3]
  GI50: 33.4 µM (inactive)
[4]
  GI50: 23.1 µM (inactive)
[5]
  GI50: 25.1 µM (inactive)
[6]
  GI50: 60.7 µM (inactive)
[7]
  GI50: 17.5 µM (inactive)
[8]
  GI50: 75.3 µM (inactive)
[9]
  GI50: 29.6 µM (inactive)
[10]
  GI50: 18.6 µM (inactive)
[11]
  GI50: 16.1 µM
[12]
  GI50: 19.5 µM (inactive)
[13]
  GI50: 23 µM (inactive)
[14]
  GI50: 20.4 µM (inactive)
[15]
  GI50: 22.6 µM (inactive)
[16]
  GI50: 15.6 µM (inactive)
[17]
  GI50: 25.5 µM (inactive)
[18]
  GI50: 16.3 µM (inactive)
[19]
  GI50: 19.7 µM (inactive)
[20]
  GI50: 16.8 µM (inactive)
[21]
  GI50: 18.5 µM (inactive)
[22]
  GI50: 15.3 µM (inactive)
[23]
  GI50: 18.3 µM (inactive)
[24]
  GI50: 18 µM (inactive)
[25]
  GI50: 24.9 µM (inactive)
[26]
  GI50: 18.9 µM (inactive)
[27]
  GI50: 17.1 µM (inactive)
[28]
  GI50: 21.2 µM (inactive)
[29]
  GI50: > 100 µM (inactive)
[30]
  GI50: 27.3 µM (inactive)
[31]
  GI50: 20.6 µM (inactive)
[32]
  GI50: 15.8 µM (inactive)
[33]
  GI50: 11.9 µM (inactive)
[34]
  GI50: 35.9 µM (inactive)
[35]
  GI50: 24.8 µM (inactive)
[36]
  GI50: 18.2 µM (inactive)
[37]
  GI50: 39.6 µM (inactive)
[38]
  GI50: 20.8 µM (inactive)
[39]
  GI50: 23.2 µM (inactive)
[40]
  GI50: 24.6 µM (inactive)
[41]
  GI50: 19.1 µM (inactive)
[42]
  GI50: 20.1 µM (inactive)
[43]
  GI50: 15.4 µM (inactive)
[44]
  GI50: 15.8 µM (inactive)
[45]
  GI50: > 100 µM (inactive)
[46]
  GI50: 18.1 µM (inactive)
[47]
  GI50: 28.2 µM (inactive)
[48]
  GI50: 30.8 µM (inactive)
[49]
  GI50: 21.6 µM (inactive)
[50]
  GI50: 26 µM (inactive)
[51]
  GI50: 22.3 µM (inactive)
[52]
  GI50: 18.4 µM (inactive)
[53]
  GI50: 26.4 µM (inactive)

## CC(=O)O[C@H]1C(=O)[C@@]2(C)[C@H]([C@H](OC(=O)c3ccccc3)[C@]3(O)C[C@H](OC(=O)[C@H](O)[C@@H](NC(=O)c4ccco4)c4ccccc4)C(C)=C1C3(C)C)[C@]1(OC(C)=O)CO[C@@H]1C[C@@H]2O
[1]
  GI50: 0.00421 µM (active)
[2]
  GI50: 0.0141 µM (active)
[3]
  GI50: < 0.00125 µM (active)
[4]
  GI50: 0.043 µM (active)
[5]
  GI50: 0.278 µM (active)
[6]
  GI50: < 0.00125 µM (active)
[7]
  GI50: < 0.00125 µM (active)
[8]
  GI50: 0.00205 µM (active)
[9]
  GI50: 0.0112 µM (active)
[54]
  GI50: < 0.00125 µM (active)
[10]
  GI50: < 0.00125 µM (active)
[11]
  GI50: 0.249 µM
[55]
  GI50: < 0.00125 µM (active)
[12]
  GI50: < 0.00125 µM (active)
[14]
  GI50: < 0.00125 µM (active)
[15]
  GI50: < 0.00125 µM (active)
[16]
  GI50: 0.0019 µM (active)
[17]
  GI50: < 0.00125 µM (active)
[18]
  GI50: < 0.00125 µM (active)
[19]
  GI50: < 0.00125 µM (active)
[20]
  GI50: < 0.00125 µM (active)
[21]
  GI50: < 0.00125 µM (active)
[22]
  GI50: 0.013 µM (active)
[23]
  GI50: < 0.00125 µM (active)
[24]
  GI50: < 0.00125 µM (active)
[25]
  GI50: 0.00286 µM (active)
[27]
  GI50: 0.00126 µM (active)
[28]
  GI50: 0.00136 µM (active)
[29]
  GI50: < 0.00125 µM (active)
[30]
  GI50: < 0.00125 µM (active)
[31]
  GI50: 2.64 µM (inactive)
[32]
  GI50: < 0.00125 µM (active)
[33]
  GI50: > 10.7 µM (inactive)
[34]
  GI50: < 0.00125 µM (active)
[35]
  GI50: < 0.00125 µM (active)
[36]
  GI50: < 0.00125 µM (active)
[37]
  GI50: < 0.00125 µM (active)
[38]
  GI50: 0.00407 µM (active)
[39]
  GI50: 0.00162 µM (active)
[40]
  GI50: 0.00624 µM (active)
[41]
  GI50: < 0.00125 µM (active)
[42]
  GI50: > 12.5 µM (inactive)
[43]
  GI50: < 0.00125 µM (active)
[44]
  GI50: < 0.00125 µM (active)
[45]
  GI50: < 0.00125 µM (active)
[47]
  GI50: 0.00134 µM (active)
[56]
  GI50: < 0.00125 µM (active)
[48]
  GI50: < 0.00125 µM (active)
[49]
  GI50: < 0.00125 µM (active)
[57]
  GI50: < 0.00125 µM (active)
[50]
  GI50: 0.022 µM (active)
[51]
  GI50: < 0.00125 µM (active)
[53]
  GI50: < 0.00125 µM (active)
[58]
  GI50: 0.627 µM (active)

## O=C1N/C(=N/N=C\C(O)C(O)C(O)CO)N/C1=C/c1ccccc1 (stereo not given)
[1]
  GI50: 64 µM (inactive)
[3]
  GI50: > 100 µM (inactive)
[4]
  GI50: > 100 µM (inactive)
[5]
  GI50: > 100 µM (inactive)
[7]
  GI50: > 100 µM (inactive)
[8]
  GI50: > 100 µM (inactive)
[9]
  GI50: > 100 µM (inactive) and 85.7 µM (inactive)
[54]
  GI50: 51.6 µM (inactive)
[12]
  GI50: > 100 µM (inactive)
[14]
  GI50: 50.1 µM (inactive)
[15]
  GI50: > 100 µM (inactive)
[19]
  GI50: > 100 µM (inactive)
[21]
  GI50: 34.4 µM (inactive) and 32.6 µM (inactive)
[22]
  GI50: 60 µM (inactive)
[24]
  GI50: 53 µM (inactive)
[25]
  GI50: 24 µM (inactive) and 39.6 µM (inactive)
[26]
  GI50: 82 µM (inactive)
[27]
  GI50: > 100 µM (inactive)
[28]
  GI50: > 100 µM (inactive)
[31]
  GI50: > 100 µM (inactive)
[34]
  GI50: > 100 µM (inactive)
[35]
  GI50: 65 µM (inactive)
[38]
  GI50: > 100 µM (inactive)
[39]
  GI50: > 100 µM (inactive) and 62.7 µM (inactive)
[43]
  GI50: > 100 µM (inactive)
[45]
  GI50: > 100 µM (inactive)
[47]
  GI50: > 100 µM (inactive)
[56]
  GI50: > 100 µM (inactive)
[50]
  GI50: > 100 µM (inactive)
[51]
  GI50: > 100 µM (inactive) and 52.5 µM (inactive)
[52]
  GI50: > 100 µM (inactive)
[58]
  GI50: > 100 µM (inactive)

## O=C(NO)c1ccc(C(=O)NO)cc1
[1]
  GI50: > 100 µM (inactive)
[2]
  GI50: > 100 µM (inactive)
[3]
  GI50: > 100 µM (inactive)
[4]
  GI50: > 100 µM (inactive)
[5]
  GI50: > 100 µM (inactive)
[6]
  GI50: 31.3 µM (inactive)
[7]
  GI50: 49.7 µM (inactive)
[8]
  GI50: 34.5 µM (inactive)
[9]
  GI50: > 100 µM (inactive)
[54]
  GI50: 9.86 µM (inactive)
[10]
  GI50: 56.1 µM (inactive)
[11]
  GI50: > 100 µM
[55]
  GI50: 42.7 µM (inactive)
[12]
  GI50: 62.2 µM (inactive)
[13]
  GI50: 82.2 µM (inactive)
[14]
  GI50: 87.9 µM (inactive)
[15]
  GI50: > 100 µM (inactive)
[16]
  GI50: > 100 µM (inactive)
[17]
  GI50: 38.4 µM (inactive)
[18]
  GI50: 79.8 µM (inactive)
[19]
  GI50: > 100 µM (inactive)
[20]
  GI50: 97.9 µM (inactive)
[21]
  GI50: > 100 µM (inactive)
[22]
  GI50: 43.6 µM (inactive)
[23]
  GI50: 48 µM (inactive)
[24]
  GI50: > 100 µM (inactive)
[25]
  GI50: 24.9 µM (inactive)
[26]
  GI50: 9.27 µM (inactive)
[27]
  GI50: > 100 µM (inactive)
[28]
  GI50: > 100 µM (inactive)
[29]
  GI50: > 100 µM (inactive)
[31]
  GI50: 3.21 µM (inactive)
[32]
  GI50: 32.4 µM (inactive)
[33]
  GI50: > 100 µM (inactive)
[34]
  GI50: > 100 µM (inactive)
[35]
  GI50: 30.8 µM (inactive)
[36]
  GI50: > 100 µM (inactive)
[37]
  GI50: 30.1 µM (inactive)
[38]
  GI50: 50.4 µM (inactive)
[39]
  GI50: 58.3 µM (inactive)
[40]
  GI50: > 100 µM (inactive)
[41]
  GI50: > 100 µM (inactive)
[42]
  GI50: > 100 µM (inactive)
[44]
  GI50: 81.7 µM (inactive)
[45]
  GI50: 12 µM (inactive)
[46]
  GI50: > 100 µM (inactive)
[47]
  GI50: > 100 µM (inactive)
[56]
  GI50: 8.2 µM (inactive)
[48]
  GI50: 27.4 µM (inactive)
[49]
  GI50: 80.9 µM (inactive)
[57]
  GI50: 30.3 µM (inactive)
[50]
  GI50: 76 µM (inactive)
[51]
  GI50: 1.25 µM (inactive)
[52]
  GI50: 56.9 µM (inactive)
[53]
  GI50: > 100 µM (inactive)
[58]
  GI50: 39.3 µM (inactive)
